The values that follow come from ChEMBL document CHEMBL6087414, “Discovery of 4-(4-(3-(1-(2-(piperidin-1-yl)ethyl)-1H-benzo[d]imidazole-2-yl)isoxazol-5-yl)phenyl)morpholine as a novel c-Myc inhibitor against lung cancer in vitro and in vivo” (Eur J Med Chem, 2025).

Test [1] concerns A549. As to the kind of experiment: Cytotoxicity against human A549 cells assessed as inhibition of cell viability incubated for 48 hrs by CCK8 assay. The test is classed as functional, cell-based. As to conditions: A549, 48 h. (Formazan colour is commonly taken as a measure of viable cells.)
The test system of test [2] is NCI-H1299. As to the kind of experiment: Cytotoxicity against human NCI-H1299 cells assessed as inhibition of cell viability incubated for 48 hrs by CCK8 assay. It is filed as functional, cell-based. As to conditions: NCI-H1299, 48 h.

A word on the IC50: it is the concentration needed to halve the response being measured. As for `c1ccc2c(c1)nc(-c1cc(-c3ccc(N4CCCCCC4)cc3)on1)n2CCN1CCCCCC1`, the 50% inhibitory concentration (IC50) in test [1] was 14.8 µM; in test [2] it was 26.4 µM.
The like results for `Cc1ccc(C(=O)n2c(-c3cc(-c4ccc(F)cc4)on3)nc3ccccc32)cc1` were, in that order, more than 40 µM and 30.1 µM.
The like results for `c1ccc2c(c1)nc(-c1cc(-c3ccc(N4CCCCCC4)cc3)on1)n2CCCN1CCOCC1` were, in that order, 20.6 µM and 22.3 µM.
The like results for `c1ccc2c(c1)nc(-c1cc(-c3ccc(N4CCCCC4)cc3)on1)n2CCCN1CCOCC1` were, in that order, 13.8 µM and 24.2 µM.
Take `CN(C)CCCn1c(-c2cc(-c3ccc(N4CCOCC4)cc3)on2)nc2ccccc21`: the half-inhibitory concentration (IC50) in test [1] worked out at 10.1 µM; in test [2] it was 22.3 µM.
The matching figures for `CN(C)c1ccc(-c2cc(-c3nc4ccccc4n3CCCN3CCCCC3)no2)cc1`: 11.6 µM and 16.9 µM.
The matching figures for `c1ccc2c(c1)nc(-c1cc(-c3ccc(N4CCCCC4)cc3)on1)n2CCN1CCCC1`: 7.68 µM and 19 µM.
Take `c1ccc2c(c1)nc(-c1cc(-c3ccc(N4CCCCC4)cc3)on1)n2CCCN1CCCCC1`: the figures for the concentration for half-maximal inhibition (IC50) in test [1] and in test [2] were 13.6 µM and 29.1 µM, respectively.
The like results for `c1ccc2c(c1)nc(-c1cc(-c3ccc(N4CCCCC4)cc3)on1)n2CCN1CCOCC1` were, in that order, 11.2 µM and 23.8 µM.
`c1ccc2c(c1)nc(-c1cc(-c3ccc(N4CCCCCC4)cc3)on1)n2CCN1CCOCC1`: the IC50 was determined as 10.9 µM in test [1] and 21 µM in test [2].
The matching figures for `c1ccc2c(c1)nc(-c1cc(-c3ccc(N4CCOCC4)cc3)on1)n2CCCN1CCCCC1`: 6.25 µM and 20.2 µM.
The like results for `c1ccc2c(c1)nc(-c1cc(-c3ccc(N4CCCCC4)cc3)on1)n2CCN1CCCCC1` were, in that order, 9.23 µM and 21.5 µM.
With `c1ccc2c(c1)nc(-c1cc(-c3ccc(N4CCOCC4)cc3)on1)n2CCN1CCCCCC1`, the values for the half-maximal inhibitory concentration (IC50) in test [1] and in test [2] were 9.94 µM and 27.6 µM, respectively.
Turning to `CN(C)c1ccc(-c2cc(-c3nc4ccccc4n3CCN3CCCC3)no2)cc1`, the half-inhibitory concentration (IC50) in test [1] was determined as 10.7 µM; in test [2] it was 14.2 µM.
The matching figures for `c1ccc2c(c1)nc(-c1cc(-c3ccc(N4CCCCC4)cc3)on1)n2CCN1CCCCCC1`: 9.38 µM and 16.7 µM.
The matching figures for `c1ccc2c(c1)nc(-c1cc(-c3ccc(N4CCCC4)cc3)on1)n2CCN1CCCCCC1`: 21.2 µM and 36.3 µM.
With `c1ccc2c(c1)nc(-c1cc(-c3ccc(N4CCOCC4)cc3)on1)n2CCCN1CCOCC1`, the half-inhibitory concentration (IC50) in test [1] came out at 13.6 µM; in test [2], 23.2 µM.
The like results for `c1ccc2c(c1)nc(-c1cc(-c3ccc(N4CCCCCC4)cc3)on1)n2CCN1CCCC1` were, in that order, 10.5 µM and 24.6 µM.
The matching figures for `CN(C)CCn1c(-c2cc(-c3ccc(N4CCOCC4)cc3)on2)nc2ccccc21`: 8.92 µM and 18.9 µM.
In the case of `CCN(CC)CCCn1c(-c2cc(-c3ccc(N4CCCCCC4)cc3)on2)nc2ccccc21`, the half-inhibitory concentration (IC50) came to 12.2 µM in test [1] and 14.3 µM in test [2].
The like results for `O=C(c1ccccc1)n1c(-c2cc(-c3ccc(N4CCOCC4)cc3)on2)nc2ccccc21` were, in that order, 20.9 µM and 19.5 µM.
As for `O=C(c1ccccc1)n1c(-c2cc(-c3ccc(F)cc3)on2)nc2ccccc21`, the IC50 in test [1] was more than 40 µM; in test [2], 23.9 µM.
For the compound `CCN(CC)CCCn1c(-c2cc(-c3ccc(N4CCOCC4)cc3)on2)nc2ccccc21`, the values for the IC50 in test [1] and in test [2] were 8.53 µM and 22.1 µM, respectively.
The matching figures for `CCc1ccc(C(=O)n2c(-c3cc(-c4ccc(N5CCOCC5)cc4)on3)nc3ccccc32)cc1`: 23.6 µM and 27.6 µM.
The like results for `CCN(CC)CCCn1c(-c2cc(-c3ccc(N(C)C)cc3)on2)nc2ccccc21` were, in that order, 8.78 µM and 19.7 µM.
The like results for `Cc1cc(C)cc(C(=O)n2c(-c3cc(-c4ccc(N5CCOCC5)cc4)on3)nc3ccccc32)c1` were, in that order, 19.2 µM and more than 40 µM.
Consider `c1ccc2c(c1)nc(-c1cc(-c3ccc(N4CCCC4)cc3)on1)n2CCCN1CCOCC1`, for which the IC50 stood at 29.5 µM in test [1] and 36.2 µM in test [2].
Turning to `c1ccc2c(c1)nc(-c1cc(-c3ccc(N4CCOCC4)cc3)on1)n2CCN1CCOCC1`, the IC50 in test [1] is 8.46 µM; in test [2] it was 21 µM.
The matching figures for `CN(C)c1ccc(-c2cc(-c3nc4ccccc4n3CCN3CCCCC3)no2)cc1`: 9.22 µM and 13.1 µM.
The matching figures for `CN(C)CCCn1c(-c2cc(-c3ccc(N4CCCCCC4)cc3)on2)nc2ccccc21`: 8.19 µM and 12.9 µM.
The matching figures for `CN(C)c1ccc(-c2cc(-c3nc4ccccc4n3CCN3CCCCCC3)no2)cc1`: 11.4 µM and 18.2 µM.
For `Cc1ccc(C(=O)n2c(-c3cc(-c4ccc(N5CCOCC5)cc4)on3)nc3ccccc32)cc1`, the figures for the IC50 in test [1] and in test [2] were 19.2 µM and 22.2 µM, respectively.
The matching figures for `CN(C)c1ccc(-c2cc(-c3nc4ccccc4n3CCN3CCOCC3)no2)cc1`: 12.7 µM and 17.7 µM.
The matching figures for `c1ccc2c(c1)nc(-c1cc(-c3ccc(N4CCCC4)cc3)on1)n2CCN1CCOCC1`: 19.9 µM and 36 µM.
The matching figures for `c1ccc(Cn2c(-c3cc(-c4ccc(N5CCOCC5)cc4)on3)nc3ccccc32)cc1`: more than 40 µM and more than 40 µM.
Turning to `CN(C)c1ccc(-c2cc(-c3nc4ccccc4n3CCCN3CCOCC3)no2)cc1`, the IC50 in test [1] turned out to be 13.6 µM; in test [2], 17 µM.
The matching figures for `Cc1cc(C)cc(OCCn2c(C3CC(=O)N(c4cccc(C)c4)C3)nc3ccccc32)c1` (stereo unspecified): 15.3 µM and 18.8 µM.
The like results for `CN(C)CCCn1c(-c2cc(-c3ccc(N4CCCCC4)cc3)on2)nc2ccccc21` were, in that order, 6.04 µM and 15.4 µM.
The matching figures for `CN(C)CCCn1c(-c2cc(-c3ccc(N(C)C)cc3)on2)nc2ccccc21`: 20.6 µM and 17.9 µM.
With `c1ccc2c(c1)nc(-c1cc(-c3ccc(N4CCCC4)cc3)on1)n2CCN1CCCC1`, the IC50 in test [1] stood at 20.8 µM; in test [2] it was 38 µM.
The matching figures for `Fc1ccc(-c2cc(-c3nc4ccccc4n3Cc3ccccc3)no2)cc1`: more than 40 µM and more than 40 µM.
The matching figures for `CCN(CC)CCCn1c(-c2cc(-c3ccc(N4CCCCC4)cc3)on2)nc2ccccc21`: 7.41 µM and 18 µM.
The like results for `c1ccc2c(c1)nc(-c1cc(-c3ccc(N4CCCCCC4)cc3)on1)n2CCN1CCCCC1` were, in that order, 10.9 µM and 21.8 µM.
